# Laboratory results as given in patent US10882857B2, “Bicyclic compounds as ATX inhibitors” (Hoffmann-La Roche Inc., priority 2017, dated 2021).
# pIC50: −log10 of the molar value.
# Biological target: ATX (human His-tagged) (Homo sapiens (Human), UniProt Q13822)
# Assay: Human ATX enzyme inhibition assay (fluorescence quenching, MR121 substrate)
# Assay type: biochemical
# Conditions: 30 nM ATX, 1 μM MR121 substrate, 30° C.
# Method: Human ATX Enzyme Inhibition Assay
# ATX inhibition was measured by a fluorescence quenching assay using a specifically labeled substrate analogue (MR121 substrate). To obtain this MR121 substrate, BOC and TBS protected 6-amino-hexanoic acid (R)-3-({2-[3-(2-{2-[2-(2-amino-ethoxy)-ethoxy]-ethoxy-}ethoxy)-propionylamino]-ethoxy}-hydroxy-phosphoryloxy)-2-hydroxy-propyl ester (Ferguson et al., Org Lett 2006, 8 (10), 2023) was labeled with MR121 fluorophore (CAS 185308-24-1, 1-(3-carboxypropyl)-11-ethyl-1,2,3,4,8,9,10,11-octahydro-dipyrido[3,2-b:2′,3′-i]phenoxazin-13-ium) on the free amine of the ethanolamine side and then, after deprotection, subsequently with tryptophan on the side of the aminohexanoic acid.
# Assay working solutions were made as follows:
# Assay buffer (50 mM Tris-HCl, 140 mM NaCl, 5 mM KCl, 1 mM CaCl2, 1 mM MgCl2, 0.01% Triton-X-100, pH 8.0;
# ATX solution: ATX (human His-tagged) stock solution (1.08 mg/mL in 20 mM bicine, pH 8.5, 0.15 M NaCl, 10% glycerol, 0.3% CHAPS, 0.02% NaN3), diluted to 1.4-2.5× final concentration in assay buffer;
# MR121 substrate solution: MR121 substrate stock solution (800 μM MR121 substrate in DMSO), diluted to 2-5× final concentration in assay buffer.
# Test compounds (10 mM stock in DMSO, 8 μL) were obtained in 384 well sample plates (Corning Costar #3655) and diluted with 8 μL DMSO. Row-wise serial dilutions were made by transferring 8 μL cpd solution to the next row up to row O. The compound and control solutions were mixed five times and 2 μL were transferred to 384 well assay plates (Corning Costar #3702). Then, 15 μL of 41.7 nM ATX solution was added (30 nM final concentration), mixed five times and then incubated for 15 minutes at 30° C. 10 μL of MR121 substrate solution was added (1 μM final concentration), mixed 30 times and then incubated for 15 minutes at 30° C.
# Fluorescence was then measured every 2 minutes for 1 hour (Perkin Elmer plate: vision multimode reader); light intensity: 2.5%; exp. time: 1.4 sec, Filter: Fluo_630/690 nm) and IC50 values were calculated from these readouts.
row,pIC50,SMILES
1,8.70,"O=C(c1cc(OCC2CCOCC2)nc(C2CC2)c1)N1CCc2cc(C(=O)N3CCc4[nH]nnc4C3)ccc2C1 [Example 1, [2-[2-Cyclopropyl-6-(oxan-4-ylmethoxy)pyridine-4-carbonyl]-3,4-dihydro-1H-isoquinolin-6-yl]-(1,4,6,7-tetrahydrotriazolo[4,5-c]pyridin-5-yl)methanone]"
2,8.70,"O=C(c1cc(OCC2CCOCC2)nc(C2CC2)c1)N1Cc2nc(C(=O)N3CCc4[nH]nnc4C3)oc2C1 [Example 1.01, [2-cyclopropyl-6-(oxan-4-ylmethoxy)pyridin-4-yl]-[2-(1,4,6,7-tetrahydrotriazolo[4,5-c]pyridine-5-carbonyl)-4,6-dihydropyrrolo[3,4-d][1,3]oxazol-5-yl]methanone]"
3,8.00,"NS(=O)(=O)C1CCN(C(=O)c2ccc3c(c2)CN(C(=O)c2cc(OCC4CCOCC4)nc(C4CC4)c2)C3)CC1 [Example 2.01, 1-[2-[2-cyclopropyl-6-(oxan-4-ylmethoxy)pyridine-4-carbonyl]-1,3-dihydroisoindole-5-carbonyl]piperidine-4-sulfonamide]"
4,8.15,"O=C(c1cc(OCC2CCOCC2)nc(C2CC2)c1)N1Cc2ccc(C(=O)N3CCc4onc(O)c4C3)cc2C1 [Example 2.02, [2-[2-cyclopropyl-6-(oxan-4-ylmethoxy)pyridine-4-carbonyl]-1,3-dihydroisoindol-5-yl]-(3-hydroxy-6,7-dihydro-4H-[1,2]oxazolo[4,5-c]pyridin-5-yl)methanone]"
5,8.15,"CC(C)(C)C(=O)Nc1cc(C(F)(F)F)cnc1COC(=O)N1Cc2ccc(C(=O)N3CCC(S(N)(=O)=O)CC3)cc2C1 [Example 2.03, [3-(2,2-dimethylpropanoylamino)-5-(trifluoromethyl)pyridin-2-yl]methyl 5-(4-sulfamoylpiperidine-1-carbonyl)-1,3-dihydroisoindole-2-carboxylate]"
6,9.00,"CC(C)(C)C(=O)Nc1cc(C(F)(F)F)cnc1COC(=O)N1Cc2nc(C(=O)N3CCC(S(N)(=O)=O)CC3)oc2C1 [Example 2.06, [3-(2,2-dimethylpropanoylamino)-5-(trifluoromethyl)pyridin-2-yl]methyl 2-(4-sulfamoylpiperidine-1-carbonyl)-4,6-dihydropyrrolo[3,4-d][1,3]oxazole-5-carboxylate]"
7,8.70,"NS(=O)(=O)C1CCN(C(=O)c2nc3c(s2)CN(C(=O)c2cc(OCC4CCOCC4)nc(C4CC4)c2)C3)CC1 [Example 3.01, 1-[5-[2-cyclopropyl-6-(oxan-4-ylmethoxy)pyridine-4-carbonyl]-4,6-dihydropyrrolo[3,4-d][1,3]thiazole-2-carbonyl]piperidine-4-sulfonamide]"
8,8.15,"NS(=O)(=O)C1CCN(C(=O)c2cc3c(s2)CN(C(=O)c2cc(OCC4CCOCC4)nc(C4CC4)c2)C3)CC1 [Example 3.02, 1-[5-[2-cyclopropyl-6-(oxan-4-ylmethoxy)pyridine-4-carbonyl]-4,6-dihydrothieno[2,3-c]pyrrole-2-carbonyl]piperidine-4-sulfonamide]"
9,9.00,"CC(C)(C)C(=O)Nc1cc(C(F)(F)F)cnc1COC(=O)N1Cc2nc(C(=O)N3CCc4[nH]nnc4C3)oc2C1 [Example 4, [3-(2,2-Dimethylpropanoylamino)-5-(trifluoromethyl)pyridin-2-yl]methyl 2-(1,4,6,7-tetrahydrotriazolo[4,5-c]pyridine-5-carbonyl)-4,6-dihydropyrrolo[3,4-d][1,3]oxazole-5-carboxylate]"
10,9.00,"CC(C)(C)C(=O)Nc1cc(C(F)(F)F)cnc1COC(=O)N1Cc2cc(C(=O)N3CCC(S(N)(=O)=O)CC3)sc2C1 [Example 4.02, [3-(2,2-Dimethylpropanoylamino)-5-(trifluoromethyl)pyridin-2-yl]methyl 2-(4-sulfamoylpiperidine-1-carbonyl)-4,6-dihydrothieno[2,3-c]pyrrole-5-carboxylate]"

row,SMILES,pIC50
1,"O=C(c1cc(OCC2CCOCC2)nc(C2CC2)c1)N1Cc2ccc(C(=O)N3CCc4c(O)noc4C3)cc2C1 [Example 2, [2-[2-Cyclopropyl-6-(oxan-4-ylmethoxy)pyridine-4-carbonyl]-1,3-dihydroisoindol-5-yl]-(3-hydroxy-5,7-dihydro-4H-[1,2]oxazolo[5,4-c]pyridin-6-yl)methanone]",7.62
2,"CC(C)(C)C(=O)Nc1cc(C(F)(F)F)cnc1COC(=O)N1Cc2ccc(C(=O)N3CCc4c(O)noc4C3)cc2C1 [Example 2.04, [3-(2,2-dimethylpropanoylamino)-5-(trifluoromethyl)pyridin-2-yl]methyl 5-(3-hydroxy-5,7-dihydro-4H-[1,2]oxazolo[5,4-c]pyridine-6-carbonyl)-1,3-dihydroisoindole-2-carboxylate]",8.15
3,"CC(C)(C)C(=O)Nc1cc(C(F)(F)F)cnc1COC(=O)N1Cc2ccc(C(=O)N3CCc4onc(O)c4C3)cc2C1 [Example 2.05, [3-(2,2-dimethylpropanoylamino)-5-(trifluoromethyl)pyridin-2-yl]methyl 5-(3-hydroxy-6,7-dihydro-4H-[1,2]oxazolo[4,5-c]pyridine-5-carbonyl)-1,3-dihydroisoindole-2-carboxylate]",8.40
4,"O=C(c1cc(OCC2CCOCC2)nc(C2CC2)c1)N1Cc2nc(C(=O)N3CCc4c(O)noc4C3)oc2C1 [Example 3, [2-Cyclopropyl-6-(oxan-4-ylmethoxy)pyridin-4-yl]-[2-(3-hydroxy-5,7-dihydro-4H-[1,2]oxazolo[5,4-c]pyridine-6-carbonyl)-4,6-dihydropyrrolo[3,4-d][1,3]oxazol-5-yl]methanone]",8.30
5,"CC(C)(C)C(=O)Nc1cc(C#N)c(Cl)cc1COC(=O)N1Cc2nc(C(=O)N3CCc4c(O)noc4C3)oc2C1 [Example 4.01, [5-chloro-4-cyano-2-(2,2-dimethylpropanoylamino)phenyl]methyl 2-(3-hydroxy-5,7-dihydro-4H-[1,2]oxazolo[5,4-c]pyridine-6-carbonyl)-4,6-dihydropyrrolo[3,4-d][1,3]oxazole-5-carboxylate]",8.15
